Laboratory results published in patent publication US11091477B2 (Madera Therapeutics, LLC, priority 2016, dated 2021).
Read-outs that look alike come from different tables or passages of the source.

How the values were obtained:
[1] = system: HCT116 (human colon cancer); experiment: CCK-8 cell viability assay on HCT116 human colon cancer cells; assay type: cell-based; settings: HCT-116, 48 h
Method: The plate is incubated for 48 hours.

[2] = system: SUM159; experiment: CCK-8 cell viability assay on SUM159 human breast cancer cells; settings: for EC50: Homo sapiens, SUM159, 72 h, read-out: EC50 (uM, SUM159); for potency on human cancer lines in comparison to TIC10: SUM159 cells, 72 hours, versus TIC10
Method: The plate was incubated for 24 hours in a humidified incubator (37° C., 5% CO2). The compound from the present invention, at the appropriate test concentrations, are added to the culture media of the plate. The plate is incubated for 48 hours. CCK-8 (10 ul, see below) is added to each well. The plate is incubated from 1-4 h under conditions as described above, and the absorbance at 450 nm and 650 nm is measured with a plate reader.
Cell Counting was by CCK-8 using WST-8 (2-(2-methoxy-4-nitrophenyl)-3-(4-nitrophenyl)-5-(2,4-disulfophenyl)-2H-tetrazolium, monosodium salt), which produces a water-soluble formazan dye upon bioreduction in the presence of an electron carrier, 1-Methoxy PMS. CCK-8 solution is added directly to the cells. WST-8 is bioreduced by cellular dehydrogenases to an orange formazan product that is soluble in tissue culture medium. The amount of formazan produced is directly proportional to the number of living cells.

[3] = HCT116 cells, 48 hours compound incubation, CCK-8, read-out: EC50 (uM, HCT116)

SMILES	EC50 [1, 3]	further results
Cc1cccc(Cn2c(=O)[nH]c3c(c2=O)CN(Cc2ccccc2)CC3)c1 [Example 2, 6-benzyl-3-[(3-methylphenyl)methyl]-1H, 2H, 3H, 4H, 5H, 6H, 7H, 8H-pyrido[4,3-d]pyrimidine-2,4-dione]	3 µM	–
Cc1cccc(Cn2c(=O)c3c(n(C)c2=O)CCN(Cc2ccccc2)C3)c1 [Example 3, 6-benxyl-1-methyl-3-[(3-methylphenyl)methyl]-1H, 2H, 3H, 4H, 5H, 6H, 7H, 8H-pyrido[4,3-d]pyrimidine-2,4-dione]	0.18 µM	–
Cc1cccc(Cn2c(=O)c3c(n(C(C)C)c2=O)CCN(Cc2ccccc2)C3)c1 [Example 4, 6-benzyl-1-isopropyl-3-(3-methylbenzyl)-5,6,7,8-tetrahydropyrido[4,3-d]pyrimidine-2,4(1H,3H)-dione]	2 µM	–
O=c1[nH]c2c(c(=O)n1Cc1ccc(Cl)cc1)CN(Cc1ccccc1)CC2 [Example 5, 6-benzyl-3-(4-chlorobenzyl)-5,6,7,8-tetrahydropyrido[4,3-d]pyrimidine-2,4(1H,3H)-dione]	2.7 µM	–
Cn1c2c(c(=O)n(Cc3ccc(Cl)cc3)c1=O)CN(Cc1ccccc1)CC2 [Example 6, 6-benzyl-3-(4-chlorobenzyl)-1-methyl-5,6,7,8-tetrahydropyrido[4,3-d]pyrimidine-2,4(1H,3H)-dione]	0.26 µM	–
CC(C)n1c2c(c(=O)n(Cc3ccc(Cl)cc3)c1=O)CN(Cc1ccccc1)CC2 [Example 7, 6-benzyl-3-(4-chlorobenzyl)-1-isopropyl-5,6,7,8-tetrahydropyrido[4,3-d]pyrimidine-2,4(1H,3H)-dione]	6.6 µM	–
O=c1[nH]c2c(c(=O)n1Cc1ccc(C(F)(F)F)cc1)CN(Cc1ccccc1)CC2 [Example 8, 3-(4-(trifluoromethyl)benzyl)-6-benzyl-5,6,7,8-tetrahydropyrido[4,3-d]pyrimidine-2,4(1H,3H)-dione]	2.6 µM	–
Cn1c2c(c(=O)n(Cc3ccc(C(F)(F)F)cc3)c1=O)CN(Cc1ccccc1)CC2 [Example 9]	0.31 µM	–
CC(C)n1c2c(c(=O)n(Cc3ccc(C(F)(F)F)cc3)c1=O)CN(Cc1ccccc1)CC2 [Example 10, 3-(4-(trifluoromethyl)benzyl)-6-benzyl-5,6,7,8-tetrahydro-1-isopropylpyrido[4,3-d]pyrimidine-2,4(1H,3H)-dione]	7.1 µM	–
Cn1c2c(c(=O)n(Cc3cccc(C(F)(F)F)c3)c1=O)CN(Cc1ccccc1)CC2 [Example 13]	–	EC50 ([1]; read-out: EC50 (uM, HCT116)): 1.4 µM
CCn1c2c(c(=O)n(Cc3cccc(C(F)(F)F)c3)c1=O)CN(Cc1ccccc1)CC2 [Example 14, 3-(3-(trifluoromethyl)benzyl)-6-benzyl-1-ethyl-5,6,7,8-tetrahydropyrido[4,3-d]pyrimidine-2,4(1H,3H)-dione]	2.5 µM	–
Cn1c2c(c(=O)n(Cc3cccc(Cl)c3)c1=O)CN(Cc1ccccc1)CC2 [Example 15, 3-(3-chlorobenzyl)-6-benzyl-5,6,7,8-tetrahydro-1-methylpyrido[4,3-d]pyrimidine-2,4(1H,3H)-dione]	3 µM	–
Cn1c2c(c(=O)n(Cc3cccc(Br)c3)c1=O)CN(Cc1ccccc1)CC2 [Example 17, 6-benzyl-3-(3-bromobenzyl)-1-methyl-5,6,7,8-tetrahydropyrido[4,3-d]pyrimidine-2,4(1H,3H)-dione]	1.1 µM	–
C#Cc1cccc(CN2CCc3c(c(=O)n(Cc4ccc(C(F)(F)F)cc4)c(=O)n3C)C2)c1 [Example 18, 6-(3-ethynylbenzyl)-1-methyl-3-(4-(trifluoromethyl)benzyl)-5,6,7,8-tetrahydropyrido[4,3-d]pyrimidine-2,4(1H,3H)-dione]	1.4 µM	–
C#Cc1cccc(CN2CCc3c(c(=O)n(Cc4ccccc4C)c(=O)n3C)C2)c1 [Example 19, 6-(3-ethynylbenzyl)-1-methyl-3-(2-methylbenzyl)-5,6,7,8-tetrahydropyrido[4,3-d]pyrimidine-2,4(1H,3H)-dione]	1.5 µM	–
C#Cc1cccc(CN2CCc3c(c(=O)n(Cc4cccc(C)c4)c(=O)n3C)C2)c1 [Example 20, 6-(3-ethynylbenzyl)-1-methyl-3-(3-methylbenzyl)-5,6,7,8-tetrahydropyrido[4,3-d]pyrimidine-2,4(1H,3H)-dione]	1 µM	–
C#Cc1cccc(CN2CCc3c(c(=O)n(Cc4ccc(Cl)cc4)c(=O)n3C)C2)c1 [Example 21, 3-(4-chlorobenzyl)-6-(3-ethynylbenzyl)-1-methyl-5,6,7,8-tetrahydropyrido[4,3-d]pyrimidine-2,4(1H,3H)-dione]	1.4 µM	–
Cn1c2c(c(=O)n(Cc3ccc(C(F)(F)F)cc3)c1=O)CN(Cc1cccc(Cl)c1)CC2 [Example 22, 6-(3-chlorobenzyl)-1-methyl-3-(4-(trifluoromethyl)benzyl)-5,6,7,8-tetrahydropyrido[4,3-d]pyrimidine-2,4(1H,3H)-dione]	0.1 µM	–
Cn1c2c(c(=O)n(Cc3ccc4c(c3)OCO4)c1=O)CN(Cc1ccccc1)CC2 [Example 23, 3-(benzo[d][1,3]dioxol-5-ylmethyl)-6-benzyl-1-methyl-5,6,7,8-tetrahydropyrido[4,3-d]pyrimidine-2,4(1H,3H)-dione]	2.5 µM	–
Cn1c2c(c(=O)n(Cc3ccc(Br)cc3)c1=O)CN(Cc1cccc(C#N)c1)CC2 [Example 24, 3-((3-(4-bromobenzyl)-1-methyl-2,4-dioxo-1,2,3,4,7,8-hexahydropyrido[4,3-d]pyrimidin-6(5H)-yl)methyl)benzonitrile]	0.022 µM	–
Cn1c2c(c(=O)n(Cc3ccc(Cl)cc3)c1=O)CN(Cc1cccc(C#N)c1)CC2 [Example 25, 3-((3-(4-chlorobenzyl)-1-methyl-2,4-dioxo-1,2,3,4,7,8-hexahydropyrido[4,3-d]pyrimidin-6(5H)-yl)methyl)benzonitrile]	–	EC50 [2]: 0.014 µM; potency on human cancer lines in comparison to TIC10 [2]: significant and unanticipated improvements in potency; EC50 ([1]; read-out: EC50 (uM, HCT116)): 0.74 µM
Cn1c2c(c(=O)n(Cc3ccc(C(F)(F)F)cc3)c1=O)CN(Cc1cccc(C#N)c1)CC2 [Example 26, 3-((1-methyl-2,4-dioxo-3-(4-(trifluoromethyl)benzyl)-1,2,3,4,7,8-hexahydropyrido[4,3-d]pyrimidin-6(5H)-yl)methyl)benzonitrile]	0.5 µM	EC50 [2]: 0.017 µM; potency on human cancer lines in comparison to TIC10 [2]: significant and unanticipated improvements in potency
CCn1c2c(c(=O)n(Cc3ccc(C(F)(F)F)cc3)c1=O)CN(Cc1cccc(C#N)c1)CC2 [Example 27, 3-((1-ethyl-2,4-dioxo-3-(4-(trifluoromethyl)benzyl)-1,2,3,4,7,8-hexahydropyrido[4,3-d]pyrimidin-6(5H)-yl)methyl)benzonitrile]	1.9 µM	–
CCn1c2c(c(=O)n(Cc3ccc(Cl)cc3)c1=O)CN(Cc1cccc(C#N)c1)CC2 [Example 28, 3-((3-(4-chlorobenzyl)-1-ethyl-2,4-dioxo-1,2,3,4,7,8-hexahydropyrido[4,3-d]pyrimidin-6(5H)-yl)methyl)benzonitrile]	0.21 µM	–
Cc1ccccc1CN1C(=O)C2=C(CCN(Cc3ccccc3)C2)N2CCN=C12 [TIC10, 11-benzyl-7-[(2-methylphenyl)methyl]-2,5,7,11-tetraazatricyclo[7.4.0.0^2,6]trideca-1(9),5-dien-8-one, reference compound]	–	EC50 [2]: 1.4 µM; EC50 ([1]; read-out: EC50 (uM, HCT116)): 2.8 µM
